# Measurements reported in patent US20060052357A1, “Organometallic anti-tumour agent” (priority 2001, published 2006).
# Key:
# C-180 sarcoma = assay: Antitumor activity for C-180 sarcoma, intraperitoneal; type: in vivo; settings: 5 mg/kg intraperitoneal
# Experimental: 4. Antitumor Activity for C-180 Sarcoma
# The results of series of experiments in which the stated active ingredient was administered intra-peritoneally in the stated dosage in physiological saline solution are shown in table 5 below.
# P388/ph = assay: Drug-resistant leukemia P388/ph (rubomycin-resistant) survival; type: in vivo, mice; settings: 5 mg/kg, days 1-7
# Excerpt: (§1) The therapeutic efficacy was investigated on the leukemia tumor strains L-1210, P-388, and P-388 strains specifically obtained for drug resistance. The lifespan of the animals was set at 60 days in this case. Drug-resistant tumor were obtained by successive transplantation of the leukemia P-388 with ascites cells taken from mice which had been treated with rubomycin (strain P388/ph), vincristine (P388/vcr) and zisplatin (P388/cPt).
# (§2) Resistance to the products mentioned appear in the 8th, 6th and 4th generation.
# (§3) The products were administered intraabdominally. Cu(acac)2M was dissolved in 10% Twin 80.
# adenocarcinoma [1] = assay: Adenocarcinoma in Balb mice, intraabdominal administration; type: in vivo
# Experimental: 1) 10 mice of the Balb line, each of which contained an adenocarcinoma, received intraabdominal administration of Cu(acac)2M in a dose of 5 mg/kg in 0.3 ml of physiological saline solution. As control, 10 further mice of the same type with the same tumor were determined without treatment. An average tumor weight of 3.60 g was found in the control mice, while the average tumor weight in the treated mice was 0.3 g. The results for the mice treated according to the invention are indicated, with weight and size of the tumor, in table 1 below.
# The average weight of the tumor was 3.60 g.
# Hydrolysis stability = type: physicochemical; settings: for period of stability (no hydrolysis): 20° C.
# Experimental: 0.6 g of (C5H7O2)2—Cu—C13H18Cl2N2O2 was dispersed in 100 ml of water or physiological saline solution with the aid of an ultrasound generator (frequency: 15 kHz, 10 minutes).
# 0.6 g of (C5H7O2)2—Cu—C13H18Cl2N2O2 was dispersed in 100 ml of 100% olive oil with the aid of an ultrasound generator (frequency: 15 kHz, 10 minutes).
# 0.1 g of (C5H7O2)2—Cu—C13H18Cl2N2O2 was dispersed in 100 ml of linoleic acid or linolenic acid with the aid of an ultrasound generator (frequency: 15 kHz, 10 minutes).
# [2] = tested on: drug-resistant leukemia P-388 tumors; settings: rubomycin-, vincristine-, cisplatin-resistant P-388
# Excerpt: The drug-resistant tumors were obtained by administration of ascites cells leukemia P-388 which were derived from mice treated with rubomycin, vincristine and cisplatin.
# [3] = tested on: tumor cell cultures (KML); assay: Protein synthesis: inclusion of 3H-amino acids in tumor cell cultures; type: cell-based, mice; settings: 50 μg/ml, incubation 24 hours
# Experimental: The effect of the substances on protein synthesis is determined with the aid of the suppression stage through the inclusion of radioactive precursors of amino acids (totaled mixture of ^3H-amino acids). 1 million cells in a “log phase” were selected for this. The complexes were introduced in a dosage of 50 μg/ml and, in parallel, the amino acids with an activity of 10 mCi/ml were introduced into 10 ml bottles. After incubation for 24 hours, the cells were washed out from the cultivation nutrient medium, and a lysis (disruption) was carried out. The radioactivity of the proteins was determined in a […] (table 25).
# adenocarcinoma [4] = assay: Adenocarcinoma transplanted after administration of the product; type: in vivo, mice; settings: day 21
# Experimental: 3. Antitumor Activity for Adenocarcinoma Transplanted After Administration of the Product.
# The active ingredient of the invention was administered intravenously in the dosage stated in the table 4 days in succession in physiological saline solution of 0.3 ml each time. The adenocarcinoma was then implanted in the Balb mice. 21 days after the tumor was transplanted, the animals were sacrificed and the weight and size of the tumor recorded. The animals received no other drugs during the experiment and were kept with a normal feed ration.
# AKATON tumor = AKATON tumor prevention by MOC.melphalan; type: in vivo, mice; settings: for Average tumor mass: control 4.46; for Average tumor volume: control 7.90
# Experimental: Mice of the Balb line received the substance MOC.melphalan in dosages of 2.5 mg/kg and 5 mg/kg in 0.3 ml of physiological solution by intravenous administration on four consecutive days (1× a day). On day 5, the AKATON tumor was implanted in the animals. The animals were sacrificed on day 21 of the investigation and underwent histological, morphological examination (table 16, FIG. 6).
# [5] = Solubility and stability in air
# B-16 melanoma tumor = assay: B-16 melanoma in Black-line mice (Example 6); type: in vivo
# Experimental: After transplantation of the B-16 melanoma tumor to Black-line mice. (cell suspension with 10×10^6 cells/ml), MOC.melphalan was administered intraabdominally in a dosage of 5 mg/kg in 0.3 ml of 10% DMSO solution on days 3, 5 and 9. The animals were sacrificed on day 21 of the investigation and underwent histological, morphological examination (see table 9).
# After transplantation of the B-16 melanoma tumor into black-line mice (cell suspension with 10×10^6 cells/ml), the substance was administered intraabdominally in a dosage of 0.1 mg/animal in 0.3 ml of 10% DMSO solution on days 3, 5 and 9. The animals were sacrificed on day 16 of the investigation and underwent histological, morphological examination (see table 10, FIGS. 1, 2). The DNA concentration in the tumor cells was determined by spectrophotometry after electrophoresis. (Table 10, FIG. 3).
# P388/vcr = assay: Drug-resistant leukemia P388/vcr (vincristine-resistant) survival; type: in vivo, mice; settings: 5 mg/kg, days 1-7
# Excerpt: as §1, §2, §3
# [6] = 5 mg/kg i.v. 4 days before implantation
# [7] = 2.5 mg/kg i.v. four consecutive days before implantation
# [8] = 5.0 mg/kg i.v. four consecutive days before implantation
smiles,measurement,setting,value
"CC(=O)C=C(C)[O-].CC(=O)C=C(C)[O-].NC(Cc1ccc(N(CCCl)CCCl)cc1)C(=O)O.[Cu+2] (stereo not drawn) [MOC.melphalan, (C5H7O2)2—Cu—C13H18Cl2N2O2]",% inhibition,C-180 sarcoma,100%
same,Mass of the tumor,C-180 sarcoma; control 2.8,no tumor
same,ILS %,P388/ph,189%
same,Number of surviving animals/number of animals in group,P388/ph,2/6
same,inhibition of the tumor,"adenocarcinoma [1]; Balb mice, 5 mg/kg intraabdominal, compared with control series",91.9%
same,average tumor weight,"adenocarcinoma [1]; Balb mice, 5 mg/kg intraabdominal, control 3.60 g",0.3 g
same,Size of the tumor,"adenocarcinoma [1]; individual treated mice 1-10, 5 mg/kg intraabdominal, listed as Cu(acac)2M",0 cm
same,period of stability,"Hydrolysis stability; 0.1 g in 100 ml of linoleic acid or linolenic acid, 20° C. in air",1 year
same,period of stability (no hydrolysis),Hydrolysis stability; 0.6 g in 100 ml of 100% olive oil,more than 2 years
same,period of stability (no hydrolysis),Hydrolysis stability; 0.6 g in 100 ml of water or physiological saline solution,30 days
same,sensitivity of the resistant tumors reduced,[2],4-5 fold
same,Suppression of amino acid inclusion,[3],59%
same,% inhibition (mass of the tumor),adenocarcinoma [4]; [6],80%
same,% inhibition (size of the tumor),adenocarcinoma [4]; [6],82.5%
same,Size of the tumor,"adenocarcinoma [4]; 5 mg/kg i.v. 4 days before implantation, control 7.9",1.38 cm^3
same,Mass of the tumor,"adenocarcinoma [4]; 5 mg/kg i.v. 4 days in succession before implantation, control 4.46",0.91 g
same,Percent inhibition of tumor volume,AKATON tumor; [7],40%
same,Percent inhibition of tumor weight,AKATON tumor; [7],40%
same,Average tumor mass,AKATON tumor; [7],2.67 g
same,Average tumor volume,AKATON tumor; [7],4.76 cm^3
same,Percent inhibition of tumor volume,AKATON tumor; [8],82%
same,Percent inhibition of tumor weight,AKATON tumor; [8],80%
same,Average tumor mass,AKATON tumor; [8],0.91 g
same,Average tumor volume,AKATON tumor; [8],1.38 cm^3
same,solubility in water,[5],poor solubility
same,Percentage inhibition,"B-16 melanoma tumor; 0.1 mg/animal intraabdominal days 3, 5, 9, day 16",78%
same,Average tumor mass,"B-16 melanoma tumor; 0.1 mg/animal intraabdominal days 3, 5, 9, day 16, control 3.22",0.83 g
same,mitosis index,"B-16 melanoma tumor; 0.1 mg/animal, day 16, control 4.2",0.6
same,Percentage inhibition,"B-16 melanoma tumor; 5 mg/kg intraabdominal days 3, 5, 9, day 21",100%
same,Tumor weight,"B-16 melanoma tumor; FIG. 1, single black-line mouse after treatment, control mouse 3.15 g",0.3 g
same,DNA,"B-16 melanoma tumor; tumor cells, 0.1 mg/animal, day 16, control 4.3",0.8 mg/g
same,ILS %,P388/vcr,516%
same,Number of surviving animals/number of animals in group,P388/vcr,5/6
